Test results from article PMC8112869, “Therapeutic inhibition of keratinocyte TRPV3 sensory channel by local anesthetic dyclonine” (eLife, 2021).

Legend:
[1] = test system: C57B/6 mice; assay: Carvacrol-induced itch-scratching behavior in mice; format: in vivo, mouse
Procedure: To assess itch-scratching behaviors, the hair of the rostral part of the mouse’s right neck was shaved using an electric hair clipper 24 hr before the start of experiments. Trpv3^-/- mice have been described previously ([Wang et al., 2021]). Scratching behaviors were recorded on video. The number of itch-scratching bouts was counted through video playback analysis. One scratching bout was defined as an episode in which a mouse lifted its right hind limb to the injection site and scratched continuously for any time length until this limb was returned to the floor or mouth ([Wilson et al., 2013]). All behavioral experiments were conducted in a double-blind manner. […] [Sun and Dong, 2016]).

[2] = molecular target: T1, mouse TRPV3 (Mus musculus, UniProt Q8K424); assay: Voltage-step whole-cell recording of TRPV3 currents (40 μM 2-APB) in HEK 293T cells; format: cell-based; parameters: expressed in transfected cells; host or cells: HEK 293T; conditions: steps –160 to +180 mV, dyclonine 10, 30 μM, RR 10 μM
T1 sequence (Q8K424 1-791): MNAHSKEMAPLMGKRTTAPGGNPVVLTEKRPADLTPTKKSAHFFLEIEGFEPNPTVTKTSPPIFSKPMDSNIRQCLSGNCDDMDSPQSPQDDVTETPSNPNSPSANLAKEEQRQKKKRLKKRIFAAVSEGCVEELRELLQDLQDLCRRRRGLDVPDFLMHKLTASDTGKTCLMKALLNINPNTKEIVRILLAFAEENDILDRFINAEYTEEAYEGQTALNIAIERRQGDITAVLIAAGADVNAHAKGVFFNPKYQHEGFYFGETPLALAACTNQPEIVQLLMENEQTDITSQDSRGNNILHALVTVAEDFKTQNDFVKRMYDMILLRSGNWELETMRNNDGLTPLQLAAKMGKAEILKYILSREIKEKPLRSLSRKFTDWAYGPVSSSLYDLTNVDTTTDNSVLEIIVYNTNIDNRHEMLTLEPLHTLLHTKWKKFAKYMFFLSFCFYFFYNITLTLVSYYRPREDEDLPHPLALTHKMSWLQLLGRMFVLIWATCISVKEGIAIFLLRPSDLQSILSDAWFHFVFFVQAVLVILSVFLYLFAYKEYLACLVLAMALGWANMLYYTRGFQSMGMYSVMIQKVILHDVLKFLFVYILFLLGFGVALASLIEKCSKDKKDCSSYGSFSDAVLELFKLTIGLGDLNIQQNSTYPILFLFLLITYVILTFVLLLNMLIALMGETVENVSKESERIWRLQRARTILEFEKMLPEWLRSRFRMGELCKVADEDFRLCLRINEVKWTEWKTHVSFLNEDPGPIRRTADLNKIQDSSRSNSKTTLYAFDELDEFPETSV
Excerpt: Conventional whole-cell and excised patch-clamp recording methods were used. For the recombinant expressing system, green fluorescent EGFP was used as a surface marker for gene expression. Recording pipettes were pulled from borosilicate glass capillaries (World Precision Instruments) and fire-polished to a resistance between 2 and 4 MΩ when filled with internal solution containing (in mM) 140 CsCl, 2.0 MgCl2, 5 EGTA, and 10 HEPES, pH 7.4 (adjusted with CsOH). Bath solution contained (in mM): 140 NaCl, 5 KCl, 3 EGTA, and 10 HEPES, pH 7.4 adjusted with NaOH. For recordings in keratinocytes, the bath saline consisted of (in mM) 140 NaCl, 5 KCl, 2 MgCl2, 2 CaCl2, 10 glucoses, and 10 HEPES, pH 7.4 adjusted with NaOH, and the pipette solution contained (in mM) 140 CsCl, 5 EGTA, and 10 HEPES, pH 7.3 adjusted with CsOH. […] For a subset of recordings, currents were amplified using an Axopatch 200B amplifier (Molecular Devices, Sunnyvale, CA) and recorded through a BNC-2090/MIO acquisition system (National Instruments, Austin, TX) using QStudio developed by Dr. Feng Qin at State University of New York at Buffalo. […] As determined by the conductance tests, the solution around a patch under study was fully controlled by the application of a flow rate of 100 μl/min or greater. […]

Structure (SMILES) | change in the number of scratching bouts ([1]; TRPV3-/- mice, intradermal carvacrol 0.1%, 50 μl) | accumulated scratching bouts over 30 min ([1]; WT TRPV3 mice, intradermal carvacrol 0.1%, 50 μl) | scratching bouts over 30 min ([1]; carvacrol (0.1%, 50 μl) with pretreatment of normal saline) | effect on TRPV3-mediated inward and outward currents (voltage dependence) [2]
Cc1ccc(C(C)C)cc1O [carvacrol] | did not elicit a remarkable change | 137.2 ± 33.9 | 137.8 ± 18.3 | –
N.N.N.N.N.N.N.N.N.N.N.N.N.N.[Cl-].[Cl-].[Cl-].[Cl-].[Cl-].[Cl-].[O-2].[O-2].[Ru+3].[Ru+3].[Ru+4] [RR, ruthenium red] | – | – | – | only inhibited TRPV3-mediated inward currents but enhanced outward currents
